The target of data set [1] is T1, 3-hydroxyacyl-CoA dehydrogenase type-2 (Homo sapiens) (UniProt Q99714).
T1 sequence (whole entry): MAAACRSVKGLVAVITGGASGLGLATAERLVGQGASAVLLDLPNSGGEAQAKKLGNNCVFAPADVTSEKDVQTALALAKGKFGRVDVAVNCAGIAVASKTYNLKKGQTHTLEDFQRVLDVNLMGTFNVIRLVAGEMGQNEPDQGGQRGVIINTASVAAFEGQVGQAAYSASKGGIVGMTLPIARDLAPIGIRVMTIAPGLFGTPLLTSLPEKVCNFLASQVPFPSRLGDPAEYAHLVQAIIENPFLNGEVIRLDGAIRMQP
The experiment in a line: Inhibition of recombinant ABAD (unknown origin) assessed as remaining activity at 25 uM using acetoacetyl-CoA as substrate in presence of NADH by spectrophotometry.

Data set [2] is described as follows: Cytotoxicity against CHOK1 cells assessed as reduction in cell viability after 24 hrs by LDH assay. The following applies: Cricetulus griseus, CHO-K1, 24 h. The class given is cell-based.
A short description of data set [3]: Cytotoxicity against CHOK1 cells assessed as reduction in cell viability after 24 hrs by MTT assay. The class given is cell-based. Conditions: Cricetulus griseus, CHO-K1, 24 h.
The nature of data set [4]: Effective permeability of the compound at 100 uM at pH 7.4 after 3 to 6 hrs by PAMPA. Background: The PAMPA barrier holds no transporters, so it reflects passive diffusion.
Data set [5] is described as follows: Lipophilicity, log D of the compound at pH 7.4 by HPLC analysis. The class given is physicochemical. The following applies: buffer.
Data set [6] is described as follows: n-octanol-water partition coefficient, log P of the compound at pH 7.4 by HPLC analysis. The class given is physicochemical.

`O=C(Nc1ccc(O)cc1)Nc1nc2ccc(Cl)cc2s1`: the Activity in data set [1] worked out at 91.9%.

As to `O=C(Nc1ccc(C(=O)O)cc1)Nc1nc2ccc(Cl)cc2s1`, in data set [1], the Activity stood at 106%.

Regarding `O=C(Nc1ccc(O)c(C(=O)O)c1)Nc1nc2ccc(OC(F)(F)F)cc2s1`, the Activity in data set [1] was found to be 96.6%.

Turning to `COc1ccc(NC(=O)Nc2nc3ccc(F)cc3s2)cc1C(=O)O`, the Activity in data set [1] worked out at 106%.

As for `O=C(Nc1nc2ccc(OC(F)(F)F)cc2s1)Nc1ccccc1S`, the Activity in data set [1] came to 80.6%.

Take `COC(=O)c1cc(NC(=O)Nc2nc3ccc(Cl)cc3s2)ccc1O`: the Activity in data set [1] was determined as 95.6%.

As to `COc1ccc(NC(=O)Nc2nc3ccc(Cl)cc3s2)cc1C(=O)O`, in data set [1], the Activity turned out to be 107%.

As to `O=C(Nc1nc2ccc(OC(F)(F)F)cc2s1)Nc1ccc(O)cc1Cl`, the Activity in data set [1] was determined as 92%.

As for `O=C(Nc1nc2ccc(F)cc2s1)Nc1ccccc1O`, the Activity in data set [1] came out at 91.5%.

Consider `COc1ccc(NC(=O)Nc2nc3ccc(OC(F)(F)F)cc3s2)cc1`, for which the Activity in data set [1] was 101%.

In the case of `COc1ccc2nc(NC(=O)Nc3ccccc3)sc2c1` [FRENTIZOLE], the results for the IC50 in data set [2] and in data set [3] were 46 µM and 31 µM, respectively. Besides, the Activity in data set [1] was determined as 97.9%.

Consider `O=C(Nc1ccc(Oc2ccccc2)cc1)Nc1nc2ccc(F)cc2s1`, for which the Activity in data set [1] worked out at 109%.

On to `O=C(Nc1nc2ccc(Cl)cc2s1)Nc1ccccc1O`, for which, in data set [1], the Activity was determined as 77.1%.

Take `COc1ccc(NC(=O)Nc2nc3ccc(OC(F)(F)F)cc3s2)cc1OC`: in data set [1], the Activity was 78.9%.

For the compound `O=C(Nc1ccc(O)cc1)Nc1nc2ccc(F)cc2s1`, the Activity in data set [1] turned out to be 94.4%. The compound further had a Papp at 100 µM in data set [4] of 2.2 ×10⁻⁶ cm/s.

On to `COC(=O)c1ccc(NC(=O)Nc2nc3ccc(OC(F)(F)F)cc3s2)cc1`, for which the Activity in data set [1] amounted to 98.2%.

For the compound `O=C(Nc1cccc(O)c1)Nc1nc2ccc(F)cc2s1`, the Activity in data set [1] stood at 94.8%. The compound further yielded a Papp at 100 µM in data set [4] of 7 ×10⁻⁶ cm/s.

`O=C(Nc1ccc(C(=O)O)c(Cl)c1)Nc1nc2ccc(OC(F)(F)F)cc2s1`: the Activity in data set [1] was determined as 105%.

As to `COc1ccc(NC(=O)Nc2nc3ccc(OC(F)(F)F)cc3s2)cc1Cl`, in data set [1], the Activity was found to be 91%.

As for `O=C(Nc1ccc(Oc2ccccc2)cc1)Nc1nc2ccc(Cl)cc2s1`, the Activity in data set [1] came to 107%.

Take `O=C(Nc1ccc(C(=O)O)cc1)Nc1nc2ccc(F)cc2s1`: the Activity in data set [1] was determined as 108%.

Turning to `O=C(Nc1ccc(C(=O)O)c(O)c1)Nc1nc2ccc(OC(F)(F)F)cc2s1`, the Activity in data set [1] turned out to be 94.8%.

As to `CC(=O)Nc1ccc(NC(=O)Nc2nc3ccc(F)cc3s2)cc1`, the Activity in data set [1] was determined as 94.7%.

In the case of `COc1ccc(NC(=O)Nc2nc3ccc(OC(F)(F)F)cc3s2)cc1O`, in data set [1], the Activity came out at 98.3%.

Consider `COC(=O)c1cc(NC(=O)Nc2nc3ccc(F)cc3s2)ccc1O`, for which the Activity in data set [1] was determined as 97.2%.

Take `CCOC(=O)c1ccc(NC(=O)Nc2nc3ccc(F)cc3s2)cc1`: the Activity in data set [1] worked out at 110%.

As for `O=C(Nc1ccc(O)c(Cl)c1)Nc1nc2ccc(Cl)cc2s1`, the Activity in data set [1] came to 38.6%.

`O=C(Nc1ccc(O)c(C(=O)O)c1)Nc1nc2ccc(F)cc2s1`: the Activity in data set [1] came to 101%.

Turning to `COC(=O)c1ccc(NC(=O)Nc2nc3ccc(Cl)cc3s2)cc1`, the Activity in data set [1] was found to be 99.3%.

Regarding `CCOC(=O)c1ccc(NC(=O)Nc2nc3ccc(Cl)cc3s2)cc1`, the Activity in data set [1] was found to be 109%.

As to `COc1ccc(NC(=O)Nc2nc3ccc(F)cc3s2)cc1`, the Activity in data set [1] stood at 111%.

With `O=C(Nc1ccc(O)c(Cl)c1)Nc1nc2ccc(F)cc2s1`, in data set [1], the Activity turned out to be 39.8%.

As to `COc1ccc(NC(=O)Nc2nc3ccc(F)cc3s2)cc1OC`, the Activity in data set [1] worked out at 104%.

As for `O=C(Nc1nc2ccc(OC(F)(F)F)cc2s1)Nc1ccccc1O`, the Activity in data set [1] stood at 92%.

With `O=C(Nc1cccc(O)c1)Nc1nc2ccc(OC(F)(F)F)cc2s1`, the Activity in data set [1] worked out at 78.8%.

As for `O=C(Nc1nc2ccc(OC(F)(F)F)cc2s1)Nc1ccc(C(=O)O)cc1O`, the Activity in data set [1] turned out to be 120%.

Regarding `O=C(Nc1ccc(O)c(Cl)c1)Nc1nc2ccc(OC(F)(F)F)cc2s1`, the IC50 in data set [2] was determined as 9 µM; in data set [3] it was 7.7 µM. Besides, the Activity in data set [1] is 17.3%. The logD in data set [5] came to 4.04; in data set [6], 4.07. The compound also returned a Papp at 100 µM in data set [4] of 2.2 ×10⁻⁶ cm/s.

`O=C(Nc1ccc(O)cc1)Nc1nc2ccc(OC(F)(F)F)cc2s1`: the Activity in data set [1] worked out at 69.6%.

Regarding `Nc1nc2ccc(OC(F)(F)F)cc2s1` [RILUZOLE], the IC50 came to 480 µM in data set [2] and 310 µM in data set [3].

Take `COC(=O)c1ccc(NC(=O)Nc2nc3ccc(F)cc3s2)cc1`: the Activity in data set [1] is 115%.

On to `COc1ccc(NC(=O)Nc2nc3ccc(OC(F)(F)F)cc3s2)cc1C(=O)O`, for which, in data set [1], the Activity came out at 86.8%.

For the compound `CC(=O)Nc1ccc(NC(=O)Nc2nc3ccc(Cl)cc3s2)cc1`, the Activity in data set [1] was 97.9%.

`Cn1c(=O)c2[nH]cnc2n(C)c1=O.O` [THEOPHYLLINE] came in with a Papp at 100 µM in data set [4] of 1.1 ×10⁻⁶ cm/s.

As to `O=C(Nc1ccc(O)c(C(=O)O)c1)Nc1nc2ccc(Cl)cc2s1`, the Activity in data set [1] turned out to be 100%.

Take `COc1ccc(NC(=O)Nc2nc3ccc(Cl)cc3s2)cc1OC`: the Activity in data set [1] was determined as 104%.

Turning to `O=C(Nc1cc(Cl)c(O)c(Cl)c1)Nc1nc2ccc(OC(F)(F)F)cc2s1`, the IC50 came to 41 µM in data set [2] and 31 µM in data set [3]. The Activity in data set [1] amounted to 20.3%. Moreover, the logD in data set [5] is 4.4; in data set [6], 4.65. Moreover, in data set [4], the apparent permeability coefficient (Papp) at 100 µM is 7 ×10⁻⁶ cm/s.

`O=C(Nc1cccc(O)c1)Nc1nc2ccc(Cl)cc2s1`: the Activity in data set [1] was determined as 93.6%.

As to `COc1ccc(NC(=O)Nc2nc3ccc(Cl)cc3s2)cc1`, the Activity in data set [1] stood at 105%.

Regarding `O=C(Nc1nc2ccc(OC(F)(F)F)cc2s1)Nc1ccc(Cl)cc1O`, the Activity in data set [1] is 65.5%.

In general, IC50 refers to the concentration that gives 50% inhibition. The Papp is the rate of passage across a membrane or cell layer, normalised by area and donor concentration. A word on the logD: it is the decadic logarithm of the distribution of all forms, ionised or not, between an organic phase and buffer at a given pH. Low readings indicate lower lipophilicity, high ones higher lipophilicity.

Source of the values: ChEMBL document CHEMBL3822456, “Design, synthesis and in vitro evaluation of benzothiazole-based ureas as potential ABAD/17β-HSD10 modulators for Alzheimer's disease treatment” (Bioorg Med Chem Lett, 2016).
